Test results from patent US9096591B2, “Tetracyclic compounds” (Medivation Technologies, Inc., priority 2007, dated 2015).

Assays:
Details in all cases: percent inhibition of specific binding
[1] = biological target: T1, human recombinant adrenergic α2A receptor (Homo sapiens, UniProt P08913); assay: Adrenergic α2A radioligand binding ([3H]MK-912); set-up: Inhibition of ligand binding, Adren. alpha2A: concentration or dose not given beside the values
T1 construct: expressed in transfected cells; host or cells: insect Sf9 cells
T1 sequence (P08913 1-465): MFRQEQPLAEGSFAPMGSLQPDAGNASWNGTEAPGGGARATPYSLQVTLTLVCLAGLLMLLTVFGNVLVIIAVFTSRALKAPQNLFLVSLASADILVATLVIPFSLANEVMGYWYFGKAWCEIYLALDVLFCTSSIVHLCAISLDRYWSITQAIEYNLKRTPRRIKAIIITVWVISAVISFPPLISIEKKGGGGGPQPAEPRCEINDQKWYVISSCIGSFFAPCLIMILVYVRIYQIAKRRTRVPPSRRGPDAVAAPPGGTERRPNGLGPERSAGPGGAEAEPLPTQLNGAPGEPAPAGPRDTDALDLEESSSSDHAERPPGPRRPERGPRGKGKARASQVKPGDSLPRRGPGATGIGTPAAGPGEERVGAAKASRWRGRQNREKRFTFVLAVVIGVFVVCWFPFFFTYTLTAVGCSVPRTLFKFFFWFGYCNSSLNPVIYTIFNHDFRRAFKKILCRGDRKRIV
In short: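 Membranes from Sf9 cells expressing the receptor were incubated with 1 nM [3H]MK-912 for 60 minutes at 25° C in 50 mM Tris-HCl pH 7.4, 12.5 mM MgCl2, 2 mM EDTA. 10 μM WB-4101 defined non-specific binding. Values are percent inhibition of specific bound radioactivity after filtration.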

[2] = biological target: T2, human recombinant dopamine D2L receptor (Homo sapiens, UniProt P14416); assay: Dopamine D2L radioligand binding ([3H]Spiperone)
T2 construct: expressed in transfected cells; host or cells: CHO cells
T2 sequence (P14416 whole entry): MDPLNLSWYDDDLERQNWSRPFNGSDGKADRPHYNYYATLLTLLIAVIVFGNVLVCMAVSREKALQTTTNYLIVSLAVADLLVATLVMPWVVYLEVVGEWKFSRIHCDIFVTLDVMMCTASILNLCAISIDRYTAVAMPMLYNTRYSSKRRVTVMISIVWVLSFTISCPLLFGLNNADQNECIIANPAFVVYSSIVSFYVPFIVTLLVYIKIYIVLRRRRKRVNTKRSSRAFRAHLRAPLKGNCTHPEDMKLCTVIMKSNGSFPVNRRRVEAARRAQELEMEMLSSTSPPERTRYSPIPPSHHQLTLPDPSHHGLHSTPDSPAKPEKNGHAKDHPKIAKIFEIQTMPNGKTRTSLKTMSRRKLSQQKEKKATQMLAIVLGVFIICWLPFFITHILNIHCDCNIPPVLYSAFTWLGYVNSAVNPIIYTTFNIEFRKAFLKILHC
Procedure: Non-specific binding was estimated in the presence of 10 μM Haloperidol. Receptor proteins were filtered and washed, the filters were then counted to determine [^3H]Spiperone specifically bound. […] Biochemical assay results are presented as the percent inhibition of specific binding in Table 6.

[3] = biological target: T3, human recombinant serotonin (5-Hydroxytryptamine) 5-HT2A receptor (Homo sapiens, UniProt P28223); assay: Serotonin 5-HT2A radioligand binding ([3H]Ketanserin)
T3 construct: expressed in transfected cells; host or cells: CHO-K1 cells
T3 sequence (P28223 whole entry): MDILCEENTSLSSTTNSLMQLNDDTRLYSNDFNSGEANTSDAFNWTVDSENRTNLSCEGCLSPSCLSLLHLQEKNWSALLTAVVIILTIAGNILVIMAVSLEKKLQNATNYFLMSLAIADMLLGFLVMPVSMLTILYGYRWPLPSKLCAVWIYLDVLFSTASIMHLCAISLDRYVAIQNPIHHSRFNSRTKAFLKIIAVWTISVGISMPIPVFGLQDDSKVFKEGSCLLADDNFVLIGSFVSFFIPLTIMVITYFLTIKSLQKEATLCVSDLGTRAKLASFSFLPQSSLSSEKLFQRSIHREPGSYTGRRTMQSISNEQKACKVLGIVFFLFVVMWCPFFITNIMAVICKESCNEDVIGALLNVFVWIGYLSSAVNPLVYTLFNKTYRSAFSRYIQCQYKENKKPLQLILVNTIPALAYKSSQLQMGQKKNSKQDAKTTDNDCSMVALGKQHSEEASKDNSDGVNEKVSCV
Procedure: (§1) Compounds of the invention were incubated with 0.5 nM [^3H]Ketanserin for 60 minutes at 25° C. Non-specific binding was estimated in the presence of 1 μM Mianserin. Receptor proteins were filtered and washed, the filters were then counted to determine [^3H]Ketanserin specifically bound. […] Biochemical assay results are presented as the percent inhibition of specific binding in Table 6.

[4] = biological target: T4, human recombinant serotonin (5-Hydroxytryptamine) 5-HT2C receptor (Homo sapiens, UniProt P28335); assay: Serotonin 5-HT2C radioligand binding ([3H]Mesulergine); set-up: Inhibition of ligand binding, Ser. 5-HT2C: concentration or dose not given beside the values
T4 construct: expressed in transfected cells; host or cells: CHO-K1 cells
T4 sequence (P28335 33-458): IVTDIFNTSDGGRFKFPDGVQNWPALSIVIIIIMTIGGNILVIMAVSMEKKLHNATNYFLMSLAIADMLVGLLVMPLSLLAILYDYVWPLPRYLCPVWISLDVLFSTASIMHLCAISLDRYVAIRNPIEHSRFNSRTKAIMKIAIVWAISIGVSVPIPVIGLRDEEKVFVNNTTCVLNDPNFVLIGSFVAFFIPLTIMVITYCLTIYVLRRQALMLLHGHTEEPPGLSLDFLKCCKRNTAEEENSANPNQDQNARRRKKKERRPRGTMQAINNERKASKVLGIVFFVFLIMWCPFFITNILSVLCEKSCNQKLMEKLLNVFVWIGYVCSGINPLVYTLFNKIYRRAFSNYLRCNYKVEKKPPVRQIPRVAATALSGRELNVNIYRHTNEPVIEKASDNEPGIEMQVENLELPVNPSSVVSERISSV
Procedure: as §1, with “1” for “0.5”, “[^3H]Mesulergine” for “[^3H]Ketanserin”

[5] = biological target: T5, human recombinant serotonin (5-Hydroxytryptamine) 5-HT6 receptor (Homo sapiens, UniProt P50406); assay: Serotonin 5-HT6 radioligand binding ([3H]LSD); set-up: Inhibition of ligand binding, Ser. 5-HT6: concentration or dose not given beside the values
T5 construct: expressed in transfected cells; host or cells: human HeLa cells
T5 sequence (P50406 whole entry): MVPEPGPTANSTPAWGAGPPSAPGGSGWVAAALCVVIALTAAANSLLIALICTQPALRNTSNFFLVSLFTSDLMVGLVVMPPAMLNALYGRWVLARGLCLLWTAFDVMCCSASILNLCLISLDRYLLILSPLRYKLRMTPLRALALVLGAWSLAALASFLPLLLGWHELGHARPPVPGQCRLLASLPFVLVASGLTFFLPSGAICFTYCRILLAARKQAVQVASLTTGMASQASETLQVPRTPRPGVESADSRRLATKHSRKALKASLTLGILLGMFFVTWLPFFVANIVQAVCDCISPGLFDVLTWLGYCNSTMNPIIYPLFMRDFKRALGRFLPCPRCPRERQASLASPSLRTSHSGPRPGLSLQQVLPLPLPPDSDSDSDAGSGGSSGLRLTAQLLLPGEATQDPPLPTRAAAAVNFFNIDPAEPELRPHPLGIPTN
Description: Receptor proteins were filtered and washed, the filters were then counted to determine [3H]LSD specifically bound. […] Biochemical assay results are presented as the percent inhibition of specific binding in Table 6.

Row | SMILES | Inhibition of ligand binding, Adren. alpha2A [1] | Inhibition of ligand binding, Dop. D2L [2] | Inhibition of ligand binding, Ser. 5-HT2A [3] | Inhibition of ligand binding, Ser. 5-HT2C [4] | Inhibition of ligand binding, Ser. 5-HT6 [5]
1 | Cc1ccc2c(c1)c1c(n2CC(=O)N2CCCCC2)CCN(C)C1 [Compound 395, 2-(1,2,3,4-tetrahydro-2,8-dimethylpyrido[4,3-b]indol-5-yl)-1-(piperidin-1-yl)ethanone] | 4% | 2% | 16% | 50% | 0%
2 | Cc1ccc2c(c1)c1c(n2CCc2ccc(C(F)(F)F)nc2)CCN(C)C1 [Compound 68] | 94% | 29% | 98% | 78% | 88%
3 | CCc1ccc2c(c1)c1c(n2CCc2cnc(C)cn2)CCN(C)C1 [Compound 364, 8-Ethyl-2-methyl-5-[2-(5-methyl-pyrazin-2-yl)-ethyl]-2,3,4,5-tetrahydro-1H-pyrido[4,3-b]indole] | 65% | 29% | 59% | 81% | 70%
4 | Cc1ccc2c(c1)c1c(n2CCc2cncc(Cl)c2)CCN(C)C1 [Compound 443, 5-(2-(5-chloropyridin-3-yl)ethyl)-2,3,4,5-tetrahydro-2,8-dimethyl-1H-pyrido[4,3-b]indole] | 87% | 29% | 94% | 95% | 96%
5 | Cc1ccc2c(c1)c1c(n2CC(=O)N2CCN(C)CC2)CCN(C)C1 [Compound 459, 2-(1,2,3,4-tetrahydro-2,8-dimethylpyrido[4,3-b]indol-5-yl)-1-(4-methylpiperazin-1-yl)ethanone] | −9% | −7% | 1% | 3% | −10%
6 | Cc1ccc2c(c1)c1c(n2CC(=O)N2CCSCC2)CCN(C)C1 [Compound 399, 2-(1,2,3,4-tetrahydro-2,8-dimethylpyrido[4,3-b]indol-5-yl)-1-thiomorpholinoethanone] | 16% | 0% | 8% | 73% | −5%
7 | Cc1ccc2c(c1)c1c(n2CC(=O)N2CCc3ccccc3C2)CCN(C)C1 [Compound 398, 2-(1,2,3,4-tetrahydro-2,8-dimethylpyrido[4,3-b]indol-5-yl)-1-(3,4-dihydroisoquinolin-2(1H)-yl)ethanone] | 23% | 8% | 85% | 69% | 15%
8 | CCCc1ccc(CCn2c3c(c4cc(Cl)ccc42)CN(C)CC3)cn1 [Compound 476, 8-chloro-2,3,4,5-tetrahydro-2-methyl-5-(2-(6-propylpyridin-3-yl)ethyl)-1H-pyrido[4,3-b]indole] | 87% | 30% | 100% | 96% | 87%
9 | CC(C)c1ccc2c(c1)c1c(n2CCc2ccc(C(F)(F)F)nc2)CCN(C)C1 [Compound 342, 8-Isopropyl-2-methyl-5-[2-(6-trifluoromethyl-pyridin-3-yl)-ethyl]-2,3,4,5-tetrahydro-1H-pyrido[4,3-b]indole] | 94% | 29% | 74% | 73% | 72%
10 | Cc1ncc(CCn2c3c(c4cc(C(C)C)ccc42)CN(C)CC3)cn1 [Compound 370, 8-Isopropyl-2-methyl-5-[2-(2-methyl-pyrimidin-5-yl)-ethyl]-2,3,4,5-tetrahydro-1H-pyrido[4,3-b]indole] | 35% | 10% | 15% | 40% | 64%
11 | Cc1ccc2c(c1)c1c(n2CCc2cccnc2)CCN(C)C1 [Compound 60] | 84% | 24% | 84% | 90% | 91%
12 | CN1CCc2c(c3cc(Cl)cc(F)c3n2CCc2ccc(C(F)(F)F)nc2)C1 [Compound 338, 8-chloro-6-fluoro-5-(2-(6-(trifluoromethyl)pyridin-3-yl)ethyl)-2,3,4,5-tetrahydro-2-methyl-1H-pyrido[4,3-b]indole] | 99% | 22% | 94% | 68% | 66%
13 | Cc1ccc2c(c1)c1c(n2CC(=O)N2CCCC(C)C2)CCN(C)C1 (centres unmarked) [Compound 401, 2-(1,2,3,4-tetrahydro-2,8-dimethylpyrido[4,3-b]indol-5-yl)-1-(3-methylpiperidin-1-yl)ethanone] | 3% | −12% | 17% | 39% | 1%
14 | CN1CCc2c(c3cc(OC(F)(F)F)ccc3n2CCc2ccc(C(F)(F)F)nc2)C1 [Compound 341, 5-(2-(6-(trifluoromethyl)pyridin-3-yl)ethyl)-2,3,4,5-tetrahydro-2-methyl-8-(trifluoromethoxy)-1H-pyrido[4,3-b]indole] | 36% | 8% | 39% | 16% | 17%
15 | Cc1cnc(CCn2c3c(c4cc(C(C)C)ccc42)CN(C)CC3)cn1 [Compound 369, 8-Isopropyl-2-methyl-5-[2-(5-methyl-pyrazin-2-yl)-ethyl]-2,3,4,5-tetrahydro-1H-pyrido[4,3-b]indole] | 25% | 1% | 10% | 57% | 23%
16 | CN1CCc2c(c3cc(Cl)ccc3n2CCc2cncnc2)C1 [Compound 424, 8-Chloro-2-methyl-5-(2-pyrimidin-5-yl-ethyl)-2,3,4,5-tetrahydro-1H-pyrido[4,3-b]indole] | 28% | 17% | 52% | 76% | 82%
